Test results: US9066516B2, “Uses of thaxtomin and thaxtomin compositions as herbicides” (priority 2008, dated 2015)

Key:
[1] = tested on: Henbit (Lamimum amplexicaule); assay: Post-emergence test of MBI-005, field (Example 13); assay type: in vivo
Procedure: (§1) In field testing, field soil containing weeds at the 1-5 leaf stage were treated with 38.2 L MBI-005/ha at a spray volume of 374 L/ha. Treatments, including water as the negative control and WeedBGon or Preen Broadleaf as the positive control, were replicated four times and applied twice at a four week interval. The positive control on Late watergrass, Ricefield Bulrush, Smallflower sedge and Arrowhead was an herbicide containing as active ingredient 2,4-D and an organosilicone surfactant was added to MBI-005. Treatments were assessed for % control and % ground cover.

[2] = tested on: Marsh watercress (Rorippa islandica); assay: Post-emergence test of MBI-005, field (Example 13); assay type: in vivo
Procedure: as §1

[3] = tested on: Nightshade, Eastern Black (Solanum ptychanthum); assay: Post-emergence test of MBI-005, field (Example 13); assay type: in vivo
Procedure: as §1

[4] = tested on: Smallflower (Cyperus difformis); assay: Post-emergence test of MBI-005, field (Example 13); assay type: in vivo; settings: Smallflower (sedge)
Procedure: as §1

[5] = tested on: corn plants (Zea mays var. Sunglow); assay: Pot study, phytotoxicity on corn (Example 1); assay type: in vivo; settings: spray 0.125-1.0 mg thaxtomin A/mL, three weeks after treatment
Procedure: In a pot study test in greenhouse conditions, 6-inch corn plants (Zea mays var. Sunglow) were sprayed with increasing concentrations of thaxtomin A mixed in a carrier 4% ethanol, 0.02% polysorbate 60 POE (20) sorbitan monostearate solution. The spraying solutions contained 0.125, 0.25, 0.5 and 1.0 mg thaxtomin A/mL, and the plants are sprayed until total coverage. Each treatment was done in three replicates, and a control solution consists of water with 4% ethanol and 0.02% polysorbate 60 POE (20) sorbitan monostearate as a surfactant. Prior to and after treatments, plants are grown in a greenhouse under artificial lights (12-h light/dark cycle) at 25° C.
Plants are evaluated in one-week intervals starting at 7 days after treatment.

[6] = tested on: sorghum (Sorghum bicolor); assay: Phytotoxicity on sorghum plants (Example 3); assay type: in vivo; settings: 0.5 and 1.0 mg thaxtomin A/mL, three weeks after the treatment
Procedure: To test the phytotoxicity of thaxtomin A on sorghum plants, five seeds of sorghum (Sorghum bicolor) are planted in each 4″×4″ plastic pot filled with soil. Plants were grown under optimal conditions in a greenhouse before and after treatment with solutions containing 0.5 and 1.0 mg thaxtomin A/mL. At the time of the treatment, the plants are about 3 inches tall. Each treatment is applied in three replicates, and a control treatment included plants treated with just the carrier (4% EtOH, 0.02% polysorbate 60 POE (20) sorbitan monostearate). Evaluations for phytotoxicity are performed at 7-day intervals starting one week after treatment.

crabgrass [7] = assay: Post-emergent MBI-005 + Chelated Fe on crabgrass (Example 16); assay type: in vivo; settings: 15 DAT
Procedure: (§2) Ten seedlings in 2.5 cm square pots containing plant growth mix were sprayed with two suboptimal rates of MBI-005, 14.49 mg/mL of Chelated Fe, or a combination thereof, at a volume of 40 gal/A using a cabinet track sprayer. Negative controls were sprayed with water. Pots were randomly placed in a growth room at 25° C. and 50% RH, and watered as necessary. Treatments were replicated five times and evaluated at 7 and 15 days for visual % damage, with 0% indicating no damage and 100% indicating plant death.
(§3) Synergy was calculated as the ratio of observed (E) to expected (E/Ee) percent control using Colby's formula.

Rice (variety M209) = assay: Field study on rice, yield (Example 6); assay type: in vivo; settings: Thaxtomin A 180 g/acre
Procedure: The efficacy of thaxtomin A derived from a liquid culture of S. acidiscabies is tested in a field study on rice using 4.9 sq-ft plots surrounded by a metal ring. Treatments with either thaxtomin A or thaxtomin A in combination with lemongrass oil (formulated as GreenMatch EX) or cyhalofop (formulated as Clincher CA) were done using a hand-held sprayer with a water volume corresponding to 57 gallons per acre. Rice (variety M209) was grown until maturity and harvested by hand for yield and weed count assessment. Results of yield (kg/ha), and numbers of redstem, small-flower umbrella sedge, and sprangletop in each plot are presented in Table 3 below.

[8] = tested on: mono and dicotyledonous seedlings; settings: cited from earlier work
[9] = tested on: small flower umbrella sedge; assay: Post-emergent MBI-005 + rice herbicides on smallflower umbrella sedge (Example 19); assay type: in vivo; settings: 14 days
Procedure: as §2, with “Twenty” for “Ten”, “to full coverage” for “with two suboptimal rates of MBI-005, 14.49 mg/mL of Chelated Fe, or a combination thereof, at a volume of 40 gal/A”, “hand” for “cabinet track”, “three” for “five”, “14” for “15”
as §3

crabgrass [10] = assay: Crabgrass seed germination, MBI-005 + m-Tyrosine (Example 15); assay type: in vivo; settings: MBI-005 at 0.0035 mg/mL, 7 DAT
Procedure: Forty-five seeds were placed on a ring of blotter paper inside a 3 cm petri dish, covered with 10 cm^3 of inert baked clay particle media and supplied with 7 ml of 0.035 mg/ml MBI-005, a m-Tyrosine concentration, or a combination of MBI-005 and m-Tyrosine (Table 14). Water was used as a negative control. Petri dishes were randomly placed in a growth room at 25° C. and 50% RH. Treatments were replicated three times and germinated seeds were counted 7 days after application; water was added as necessary to maintain moisture levels inside each petri dish.
Synergy was calculated as the ratio of observed (E) to expected (E/Ee) reduction in germination using Colby's formula.

barnyard grass = assay: Greenhouse synergy test MBI-005 + commercial herbicides (Example 11); assay type: in vivo; settings: 14 days
Procedure: (§4) The test species barnyard grass, ragweed, sedge, and broad-leaf mustard were used for the valuation of synergy between MBI-005 and the rice herbicides clomazone, penoxsulam, cyhalofop, fenoxaprop-p-ethyl, bispyribac-sodium, thiobencarb, and propanil.
(§5) There were 3 replicates per treatment which were sprayed with approximately ⅔ ml per replicate. The treatments were completely randomized and kept in a greenhouse at 25° C. The efficacy was rated at 7 and 14 days post treatment.

broad-leaf mustard = assay: as above; assay type: in vivo; settings: 14 days
Procedure: as §4, §5

sedge = assay: as above; assay type: in vivo; settings: 14 days
Procedure: as §4, §5

In the case of `CN1C(=O)[C@](O)(Cc2cccc(O)c2)N(C)C(=O)[C@@H]1Cc1c[nH]c2cccc([N+](=O)[O-])c12` [thaxtomin A], the “Rating at 1 mg/ml (Post-Emergence % control)” value [1] is reported as “++++ (91-100)”, the “Rating at 1 mg/ml (Post-Emergence % control)” value [2] is reported as “++ (51-80)” and the “Rating at 1 mg/ml (Post-Emergence % control)” value [3] is reported as “++ (51-80)”. The “Rating at 1 mg/ml (Post-Emergence % control)” value [4] was “++++ (91-100)”, the phytotoxicity [5] was “no phytotoxicity is observed” and the phytotoxicity [6] was “no phytotoxicity is observed”. The “AVG E (visual % damage)” value (crabgrass [7]; 12.5% MBI-005 (0.125 mg/mL)) was 1.3%, the “AVG E (visual % damage)” value (crabgrass [7]; 25% MBI-005 (0.25 mg/mL)) was 1.3% and the “Yield (kg/ha)” value (Rice (variety M209); listed as Thaxtomin A) was 7876b kg/ha. For the same molecule, the “Yield (kg/ha)” value (Rice (variety M209); listed as thaxtomin) was “no effect”, the “concentration causing cell swelling, necrosis and growth inhibition” value [8] was “less than 1 uM” and the “% Control MBI-005” value ([9]; MBI-005 0.5% of the label rate (Bispyribac-sodium line)) was 3.3%. The “% Control MBI-005” value ([9]; MBI-005 2.0% of the label rate (Penoxsulam line)) was 20.0%, the “% Control MBI-005” value ([9]; MBI-005 2.0% of the label rate (Propanil line)) was 20.0% and the “% Control MBI-005” value ([9]; MBI-005 2.0% of the label rate (Thiobencarb line)) was 20.0%. The “E (% controlled compared to UTC)” value (crabgrass [10]) was 14.3%, the “AVG No. germinated” value (crabgrass [10]; forty-five seeds) was 38.0 and the “% Control MBI-005” value (barnyard grass; MBI-005 0.125 mg/mL (bispyribac-sodium line)) was 3.3%. For the same molecule, the “% Control MBI-005” value (barnyard grass; MBI-005 0.125 mg/mL (penoxsulam line)) was 17.5%, the “% Control MBI-005” value (barnyard grass; MBI-005 0.125 mg/mL (propanil line)) was 10.0% and the “% Control MBI-005” value (barnyard grass; MBI-005 0.25 mg/mL (fenoxaprop-p-ethyl line)) was 66.7%. For the same molecule, the “% Control MBI-005” value (barnyard grass; MBI-005 0.25 mg/mL (thiobencarb line)) was 41.7%, the “% Control MBI-005” value (broad-leaf mustard; MBI-005 0.125 mg/mL (cyhalofop line)) was 13.3% and the “% Control MBI-005” value (broad-leaf mustard; MBI-005 0.125 mg/mL (fenoxaprop-p-ethyl line)) was 45.8%. The “% Control MBI-005” value (broad-leaf mustard; MBI-005 0.125 mg/mL (thiobencarb line)) was 54.2%, the “% Control MBI-005” value (broad-leaf mustard; MBI-005 0.25 mg/mL (bispyribac-sodium line)) was 37.5% and the “% Control MBI-005” value (broad-leaf mustard; MBI-005 0.25 mg/mL (propanil line)) was 58.3%. For the same molecule, the “% Control MBI-005” value (sedge; MBI-005 0.01 mg/mL (cyhalofop line)) was 20.0%, the “% Control MBI-005” value (sedge; MBI-005 0.01 mg/mL (penoxsulam line)) was 20.0% and the “% Control MBI-005” value (sedge; MBI-005 0.02 mg/mL (fenoxaprop-p-ethyl line)) was 70.8%. For the same molecule, the “% Control MBI-005” value (sedge; MBI-005 0.02 mg/mL (thiobencarb line)) was 37.5%.
